Measurements taken from article PMC8008425, “Shedding X-ray Light on the Role of Magnesium in the Activity of Mycobacterium tuberculosis Salicylate Synthase (MbtI) for Drug Design” (Journal of Medicinal Chemistry, 2020).
Values after ≈ are worked out from the molar mass of the structure shown. Values joined by “and” are separate entries in the source; they are usually repeats but may differ in a detail not shown here. Equal values may be shown once. Read-outs that look alike come from different tables or passages of the source.

Columns and labels:
recombinant MbtI [1] = molecular target: T1, recombinant MbtI (Mycobacterium tuberculosis, UniProt P9WFX1); assay: MbtI enzymatic (fluorimetric) inhibition assay; assay type: biochemical; settings: for remaining activity at 100 µM: residual enzymatic activity at 100 μM ligand concentration, 50 μM chorismic acid
in vitro = settings: human
M. bovis BCG [2] = assay type: cell-based, Mycobacterium bovis; settings: M. bovis BCG cultures grown at different concentrations of compound, chelated Sauton's medium
M. tuberculosis H37Rv [3] = assay: MIC99 determination on Middlebrook 7H11 agar solid medium; assay type: cell-based; settings: Mycobacterium tuberculosis
M. bovis BCG [4] = assay: microbe, parasite or virus in culture; assay type: cell-based; settings: Mycobacterium tuberculosis variant bovis BCG
M. tuberculosis H37Rv [5] = test system: M. tuberculosis H37Rv; parameters: method as in PMID 29940465, PMID 30889995; settings: Mtb cultures; cited from earlier work
recombinant MbtI [6] = molecular target: T1, recombinant MbtI; settings: cited from earlier work
[7] = standard assay, 5 mM MgCl2, read-out: IC50

T1 sequence (P9WFX1 whole entry): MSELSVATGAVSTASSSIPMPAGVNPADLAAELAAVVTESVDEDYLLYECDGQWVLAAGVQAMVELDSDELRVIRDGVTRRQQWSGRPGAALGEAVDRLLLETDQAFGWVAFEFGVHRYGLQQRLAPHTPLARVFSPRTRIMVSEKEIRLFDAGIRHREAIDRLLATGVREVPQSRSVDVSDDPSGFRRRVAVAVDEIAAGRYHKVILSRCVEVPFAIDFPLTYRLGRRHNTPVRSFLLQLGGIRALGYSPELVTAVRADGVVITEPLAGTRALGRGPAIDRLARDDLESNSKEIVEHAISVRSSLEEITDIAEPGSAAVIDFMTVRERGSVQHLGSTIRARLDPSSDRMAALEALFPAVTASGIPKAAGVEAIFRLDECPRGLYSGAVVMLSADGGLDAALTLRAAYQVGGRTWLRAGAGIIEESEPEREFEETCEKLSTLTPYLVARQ

In the case of `O=C(O)c1ccc(-c2cccc(C(F)(F)F)c2)o1` [Compound 1], the remaining activity at 100 µM (recombinant MbtI [1]; 5 mM MgCl2) is reported as 42 ± 6.3%.

In the case of `O=C(O)c1ccc(-c2cccc(Cl)c2)o1` [Compound 2, 5-(3-Chlorophenyl)furan-2-carboxylic Acid], the melting point is reported as 187 °C (dec.) and the remaining activity at 100 µM (recombinant MbtI [1]; 5 mM MgCl2) is reported as 102 ± 17.8%.

Molecule `O=C(O)c1ccc(-c2cccc(O)c2)o1` [Compound 3, 5-(3-Hydroxyphenyl)furan-2-carboxylic Acid] has a melting point of 170 °C and a remaining activity at 100 µM (recombinant MbtI [1]; 5 mM MgCl2) of 70.4 ± 21.8%.

`Cc1cccc(-c2ccc(C(=O)O)o2)c1` [Compound 4, 5-(m-Tolyl)furan-2-carboxylic Acid] gave a melting point of 147 °C and a remaining activity at 100 µM (recombinant MbtI [1]; 5 mM MgCl2) of 104 ± 4.8%.

In the case of `Nc1cccc(-c2ccc(C(=O)O)o2)c1` [Compound 5, 5-(3-Aminophenyl)furan-2-carboxylic Acid], the melting point is reported as 225 °C (dec.) and the remaining activity at 100 µM (recombinant MbtI [1]; 5 mM MgCl2) is reported as 65.8 ± 9.6%.

With `NC(=O)c1cccc(-c2ccc(C(=O)O)o2)c1` [Compound 6, 5-(3-Carbamoylphenyl)furan-2-carboxylic Acid] the remaining activity at 100 µM (recombinant MbtI [1]; 5 mM MgCl2) was 20.9 ± 4.3% and the IC50 (recombinant MbtI [1]; [7]) was 31 µM and 31.4 µM.

With `CNC(=O)c1cccc(-c2ccc(C(=O)O)o2)c1` [Compound 7, 5-(3-(Methylcarbamoyl)phenyl)furan-2-carboxylic Acid] the melting point was 159 °C and the remaining activity at 100 µM (recombinant MbtI [1]; 5 mM MgCl2) was 84 ± 9.1%.

Work on `NS(=O)(=O)c1cccc(-c2ccc(C(=O)O)o2)c1` [Compound 8, 5-(3-Sulfamoylphenyl)furan-2-carboxylic Acid] yielded a remaining activity at 100 µM (recombinant MbtI [1]; 5 mM MgCl2) of 28.6 ± 6.8%.

Work on `O=C(O)c1cccc(-c2ccc(C(=O)O)o2)c1` [Compound 9, 5-(3-Carboxyphenyl)furan-2-carboxylic Acid] yielded a remaining activity at 100 µM (recombinant MbtI [1]; 5 mM MgCl2) of 27.2 ± 4.5%.

Molecule `N#Cc1cccc(-c2ccc(C(=O)O)o2)c1` [Compound 10, 5-(3-Cyanophenyl)furan-2-carboxylic Acid] has an IC50 (in vitro) greater than 100 µM, an IC50 (recombinant MbtI [1]; 0.1 mg/mL BSA, PAINS control, read-out: IC50 in the presence of BSA) of 6.1 ± 0.9 µM and an IC50 (recombinant MbtI [1]; 1 mM MgCl2, Figure 5B, x-axis [10] (μM), read-out: IC50 at 1 mM MgCl2) of 9.8 ± 1.3 µM. For the same molecule, the IC50 (recombinant MbtI [1]; 5 mM MgCl2, Figure 5B, x-axis [10] (μM), read-out: IC50 at 5 mM MgCl2) was 11.4 ± 2 µM, the IC50 (recombinant MbtI [1]; 0.01% (v/v) Triton X-100, PAINS control, read-out: IC50 in the presence of Triton X-100) was 5.8 ± 1.2 µM and the IC50 (recombinant MbtI [1]; 25 mM MgCl2, Figure 5B, x-axis [10] (μM), read-out: IC50 at 25 mM MgCl2) was 14.2 ± 1.1 µM. The IC50 (recombinant MbtI [1]; 100 mM DTT, PAINS control, read-out: IC50 in the presence of DTT) was 7.2 ± 1.1 µM, the IC50 (recombinant MbtI [1]; IC50, standard assay, 5 mM MgCl2) was 6.3 ± 0.9 µM and the remaining activity at 100 µM (recombinant MbtI [1]; 5 mM MgCl2) was 3.1 ± 1%. The IC50 (recombinant MbtI [1]; [7]) was roughly 6 µM, the “mode of inhibition (kinetic analysis)” value (recombinant MbtI [1]; steady-state kinetics toward chorismic acid) was “competitive inhibitor” and the Ki (recombinant MbtI [1]; steady-state kinetics toward chorismic acid, competitive inhibition) was 4.2 µM and 4 µM. The “siderophore concentration (Universal CAS assay and quantification of mycobactins)” value (M. bovis BCG [2]) was “siderophore concentration decreased at higher concentrations of the compound”, the MIC99 (M. tuberculosis H37Rv [3]) was 250 µM (≈ 53.3 µg/mL) and the MIC99 (M. bovis BCG [4]) was 250 µM (≈ 53.3 µg/mL).

`N#Cc1cccc(-c2ccc(C(N)=O)o2)c1` [Compound 11, 5-(3-Cyanophenyl)furan-2-carboxamide] showed a melting point of 202 °C and an IC50 (recombinant MbtI [1]; [7]) of 17.3 ± 1.9 µM.

In the case of `O=C(O)c1ccc(-c2ccc(C(F)(F)F)cc2C(F)(F)F)o1` [II], the MIC99 (M. tuberculosis H37Rv [5]) is listed as 250 µM (≈ 81 µg/mL).

In the case of `O=C(O)c1ccc(-c2ccc([N+](=O)[O-])cc2)o1` [I], the MIC99 (M. tuberculosis H37Rv [5]) is listed as 156 µM (≈ 36.4 µg/mL) and the IC50 (recombinant MbtI [6]; previous leads) is listed as 7.6 ± 1.6 µM.

In the case of `O=C(O)c1ccc(-c2cccc([N+](=O)[O-])c2)o1` [NO2, 5-(3-nitrophenyl)furan-2-carboxylic acid], the inhibitory activity (recombinant MbtI [6]; at a concentration of 100 μM) is given as roughly 50%.
